Experimental data from ChEMBL document CHEMBL5050831, “Substituted quinoxaline derivatives as inhibitors of pfkfb” (2019).

Experiment: Metabolic stability in human liver microsomes at […] in presence of NADPH assessed as intrinsic clearance
Assay type: ADME, Microsome
Details: read-out: CLH

With `CC(C)[C@H](Nc1cc(-c2ccc3ccn(C)c3c2)c2nccnc2c1)c1cccnc1` the microsomal CLint was 85 µL/min/mg.
